According to US7491501B2, “Methods for identifying modulators of intracellular aggregate formation” (Auburn University, priority 2003, dated 2009):

Assays:
Type in all cases: cell-based
[1] = target: T1, p62-TRAF6 interaction (Homo sapiens, UniProt Q9Y4K3); experiment: p62-TRAF6 interaction in HEK cells after IL-1 stimulation, p62 UBA domain pull-down (FIG. 2C); conditions: increasing doses of peptide
T1 construct: endogenous in cells; host or cells: HEK 293
T1 sequence (Q9Y4K3 1-522): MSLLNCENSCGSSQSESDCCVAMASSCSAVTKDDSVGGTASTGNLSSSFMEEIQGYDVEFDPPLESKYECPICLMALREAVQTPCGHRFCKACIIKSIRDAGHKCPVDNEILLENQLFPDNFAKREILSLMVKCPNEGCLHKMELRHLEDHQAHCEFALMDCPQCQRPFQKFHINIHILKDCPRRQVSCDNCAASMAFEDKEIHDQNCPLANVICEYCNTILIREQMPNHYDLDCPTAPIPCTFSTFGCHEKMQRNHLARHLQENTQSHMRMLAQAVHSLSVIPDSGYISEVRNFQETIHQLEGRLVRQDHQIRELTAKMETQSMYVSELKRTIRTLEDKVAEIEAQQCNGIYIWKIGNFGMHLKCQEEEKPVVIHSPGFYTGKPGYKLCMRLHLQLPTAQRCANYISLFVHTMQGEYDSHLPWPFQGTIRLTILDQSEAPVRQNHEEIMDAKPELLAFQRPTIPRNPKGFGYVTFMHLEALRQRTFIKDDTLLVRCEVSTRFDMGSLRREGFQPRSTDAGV
Protocol: GST Pull-Down Assay—Glutathione beads coupled with p62 UBA domain were washed three times with binding buffer (20 mM Tris-HCl, pH 7.6, 50 mM NaCl, 0.1% Nonidet P-40, […], 1 mM phenylmethylsulfonyl fluoride) containing 25 μg/ml of BSA. For each mg of lysate, 2.5 μg of GST-UBA domain was added and rotated for 2 h at room temperature. The beads were washed 3 times with binding buffer and boiled in SDS-PAGE sample buffer, followed by separation employing a 7.5% SDS-gel, and western blotting with appropriate antibody.
A peptide (plain type, SEQ ID NO. 6) containing the TRAF6-binding motif present in p62 (underlined type) along with the hydrophobic sequence containing the cell-permeable motif (italicized type) from Kaposi fibroblast growth factor signal sequence was synthesized ([…]-[…]) (SEQ ID NO. 4) or a control peptide with mutant amino acids in the interaction motif (AAVA […]-[…])(SEQ ID NO. 5). […] HEK cells were treated or not with increasing doses of control or TRAF6 inhibitory peptide, followed by stimulation with IL-1. Lysates were prepared and included in a pull-down employing the UBA domain of p62. Should the p62-UBA domain bind K63-polyubiquitinated substrate proteins, a dose-dependent reduction in interaction of the lysates would occur with lysates prepared from cells pretreated with TRAF6 inhibitory peptide. In fact, this is what was found (FIG. 2C).

[2] = tested on: tau polyubiquitination; experiment: NGF-induced tau polyubiquitination in PC12 cells (FIG. 13A); conditions: control not shown
Protocol: The region spanning amino acids 225-251 is necessary for the interaction of p62 with TRAF6. The peptide containing TRAF6 binding motif in p62 along with the hydrophobic sequence containing the cell-permeable motif from Kaposi fibroblast growth factor sequence, […]-[…] (SEQ ID NO. 4) and control peptide […]-[…] (SEQ ID NO. 5) was synthesized. As a preliminary step, PC12 cells were pretreated with various concentrations of peptide for 5 h, followed by NGF stimulation for 15 min and immunoprecipitation with TRAF6 and western blotted with p62. […] The peptide was then tested for its ability to block NGF-induced tau polyubiquitination (FIG. 13A).

[3] = tested on: TrkA; experiment: NGF-dependent TrkA ubiquitination and TrkA complex formation in PC12 cells (FIG. 15B, 15C); conditions: TrkA immunoprecipitation
Protocol: The peptide containing the TRAF6-binding motif in p62 along with the hydrophobic sequence containing the cell-permeable motif from Kaposi fibroblast growth factor signal sequence […]-[…] (SEQ ID NO. 4) and control peptide […]-[…] (SEQ ID NO. 5) was synthesized. As a preliminary step, PC12 cells were pretreated with different concentrations (75-300 μM) of TRAF6 peptide for 5 hours followed by NGF stimulation for 15 min and immunoprecipitation of TRAF6 followed by Western blotting for p62. […] To address whether TRAF6 peptide affects the interaction of p62 and UbcH7 with TRAF6, PC12 cells were treated with or without 150 μM of control peptide or TRAF6 peptide for 5 hours and then stimulated with NGF for 15 min. By immunoprecipitating TRAF6, TRAF6 peptide (150 μM) abrogated the interaction of p62 with TRAF6, but not UbcH7, upon NGF treatment (FIG. 8A). […] The ability of the TRAF6 peptide to impair the ubiquitination process was investigated. Lysates recovered from NGF treated cells were immunoprecipitated with TrkA receptor antibody and blotted for ubiquitin or the receptor (FIG. 15B). […] The ability of the peptide to interrupt the formation of the functional TrkA-p62-TRAF6-UbcH7 complex on NGF stimulation as well was also investigated. TrkA was immunoprecipitated and blotted for the presence of each protein in the complex (FIG. 15C).

## AAVALLPAVLLALLAP-ESASGPSEDPSVNFLK (AAVALLPAVLLALLAPESASGPSEDPSVNFLK; artificial sequence for cell permeable peptide) [TRAF6 peptide]
[1]
  p62-TRAF6 interaction: blocked p62-TRAF6 interaction in a dose-dependent fashion
[2]
  NGF-induced tau polyubiquitination: completely abrogated
[3]; NGF stimulation
  TRAF6 and UbcH7 interacting with TrkA: eliminated
  interaction of p62 and TrkA: did not disrupt
[3]; NGF treated
  NGF-dependent ubiquitination of TrkA: effectively abolish
